Test results from patent publication US20060183902A1, “Dihydroindolyl methanones as alpha 1a/1d adrenoreceptor modulators for the treatment of benign prostatic hypertrophy and lower urinary tract symptoms” (priority 2005, published 2006).
Where “and” joins values, the source holds several entries; their conditions need not be identical. Equal values may be shown once. Read-outs that look alike come from different tables or passages of the source.

Columns and labels:
α1d-AR = target: T1, α1d-AR (Homo sapiens, UniProt P25100); test: α1-Adrenergic receptor radio-ligand (125I-HEAT) binding assay, α1d subtype; details: COS-7 cell membranes transfected with α1d-AR, 125I-HEAT 50 pM
T1 construct: expressed in transfected cells; host or cells: COS-7
T1 sequence (P25100 1-572): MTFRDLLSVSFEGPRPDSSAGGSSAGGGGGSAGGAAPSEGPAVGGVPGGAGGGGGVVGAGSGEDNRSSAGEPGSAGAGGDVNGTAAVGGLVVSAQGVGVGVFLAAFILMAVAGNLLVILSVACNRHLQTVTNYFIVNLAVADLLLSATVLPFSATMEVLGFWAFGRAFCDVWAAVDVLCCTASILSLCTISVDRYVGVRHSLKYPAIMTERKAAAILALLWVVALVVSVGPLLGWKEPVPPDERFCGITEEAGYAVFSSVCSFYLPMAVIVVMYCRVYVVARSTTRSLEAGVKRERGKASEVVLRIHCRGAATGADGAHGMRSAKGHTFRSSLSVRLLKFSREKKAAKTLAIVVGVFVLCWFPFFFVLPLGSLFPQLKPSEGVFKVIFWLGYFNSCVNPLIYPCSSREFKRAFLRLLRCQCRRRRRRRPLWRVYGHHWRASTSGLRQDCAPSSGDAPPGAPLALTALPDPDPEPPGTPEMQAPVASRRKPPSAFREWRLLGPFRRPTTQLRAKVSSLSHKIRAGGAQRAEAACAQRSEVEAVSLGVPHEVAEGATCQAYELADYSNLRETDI
Procedure, shortened: (§1)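 Membranes from COS-7 cells transfected with a single α1-AR subtype, incubated 1 h at rt with 50 pM 125I-HEAT and compound (1 pM–10 µM, half-log steps, final) in Tris/EDTA/NaCl pH 7.4. Bound radioactivity collected by GF/C filtration and scintillation counting, triplicates; Ki derived.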

α1a-AR = target: T2, α1a-AR (Homo sapiens, UniProt P35348); test: α1-Adrenergic receptor radio-ligand (125I-HEAT) binding assay, α1a subtype; details: COS-7 cell membranes transfected with α1a-AR, 125I-HEAT 50 pM
T2 construct: expressed in transfected cells; host or cells: COS-7
T2 sequence (P35348 1-466): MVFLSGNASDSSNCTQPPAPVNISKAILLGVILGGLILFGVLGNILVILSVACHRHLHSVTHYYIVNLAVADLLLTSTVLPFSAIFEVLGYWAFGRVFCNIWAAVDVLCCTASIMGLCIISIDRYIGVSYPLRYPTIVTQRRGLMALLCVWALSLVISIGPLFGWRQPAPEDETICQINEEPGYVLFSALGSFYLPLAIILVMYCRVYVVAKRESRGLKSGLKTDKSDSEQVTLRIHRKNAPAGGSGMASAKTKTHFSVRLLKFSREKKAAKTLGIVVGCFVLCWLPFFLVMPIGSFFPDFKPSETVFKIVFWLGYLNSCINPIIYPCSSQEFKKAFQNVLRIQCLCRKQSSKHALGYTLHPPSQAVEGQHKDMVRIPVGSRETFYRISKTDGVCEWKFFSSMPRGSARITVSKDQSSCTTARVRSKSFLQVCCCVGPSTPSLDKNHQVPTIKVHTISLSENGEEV
Procedure, shortened: as §1

α1b-AR = target: T3, α1b-AR (Homo sapiens, UniProt P35368); test: α1-Adrenergic receptor radio-ligand (125I-HEAT) binding assay, α1b subtype; details: COS-7 cell membranes transfected with α1b-AR, 125I-HEAT 50 pM
T3 construct: expressed in transfected cells; host or cells: COS-7
T3 sequence (P35368 1-520): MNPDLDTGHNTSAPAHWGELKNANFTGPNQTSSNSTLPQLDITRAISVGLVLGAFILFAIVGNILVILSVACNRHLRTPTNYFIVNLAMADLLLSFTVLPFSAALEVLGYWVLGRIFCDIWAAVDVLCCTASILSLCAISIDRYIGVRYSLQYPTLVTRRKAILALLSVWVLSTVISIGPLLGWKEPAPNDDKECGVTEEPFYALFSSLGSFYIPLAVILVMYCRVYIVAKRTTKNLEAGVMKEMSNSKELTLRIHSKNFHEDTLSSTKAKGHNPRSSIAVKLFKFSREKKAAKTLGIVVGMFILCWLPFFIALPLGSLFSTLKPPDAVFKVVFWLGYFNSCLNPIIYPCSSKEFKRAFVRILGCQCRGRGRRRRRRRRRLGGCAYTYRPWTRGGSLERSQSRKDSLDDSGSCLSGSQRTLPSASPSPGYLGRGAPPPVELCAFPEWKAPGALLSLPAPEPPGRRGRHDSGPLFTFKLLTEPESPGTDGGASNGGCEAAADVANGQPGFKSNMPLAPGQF
Procedure, shortened: as §1

[1] = read-out: Receptor Binding, Ki α1d-AR
[2] = read-out: Receptor Binding, Ki α1a-AR
[3] = read-out: Receptor Binding, Ki α1b-AR

Compound | Ki (α1d-AR; [1]) | melting point [°C] | Ki (α1a-AR; [2]) | Ki (α1b-AR; [3]) | Ki (α1d-AR; Receptor Binding, Ki α1d-AR) [nM] | Ki (α1a-AR; Receptor Binding, Ki α1a-AR) [nM] | Ki (α1b-AR; Receptor Binding, Ki α1b-AR) [nM]
CC(C)Oc1ccccc1N1CCN(Cc2cccc(C(=O)N3CCc4cc(N)ccc43)c2)CC1 [Cpd 1, (5-amino-2,3-dihydro-indol-1-yl)-{3-[4-(2-isopropoxy-phenyl)-piperazin-1-ylmethyl]-phenyl}-methanone] | 8.6 nM | 137 to 139 | 1.5 nM | 301 nM |  |  | 
CC(C)Oc1ccccc1N1CCN(Cc2cccc(C(=O)N3CCc4cc(NS(=O)(=O)c5ccc6ccccc6c5)ccc43)c2)CC1 [Cpd 2, naphthalene-2-sulfonic acid (1-{3-[4-(2-isopropoxy-phenyl)-piperazin-1-ylmethyl]-benzoyl}-2,3-dihydro-1H-indol-5-yl)-amide] | 9.7 nM | 73 to 76 | 1.1 nM | 321 nM |  |  | 
CC(C)Oc1ccccc1N1CCN(Cc2cccc(C(=O)N3CCc4cc(NS(=O)(=O)c5cccc6c(N(C)C)cccc56)ccc43)c2)CC1 [Cpd 3, 5-dimethylamino-naphthalene-1-sulfonic acid (1-{3-[4-(2-isopropoxy-phenyl)-piperazin-1-ylmethyl]-benzoyl}-2,3-dihydro-1H-indol-5-yl)-amide] | 98 nM | 80 to 83 | 65 nM | 3450 nM |  |  | 
Cc1ccc(OC(=O)Nc2ccc3c(c2)CCN3C(=O)c2cccc(CN3CCN(c4ccccc4OC(C)C)CC3)c2)cc1 [Cpd 4, (1-{3-[4-(2-isopropoxy-phenyl)-piperazin-1-ylmethyl]-benzoyl}2,3-dihydro-1H-indol-5-yl)-carbamic acid p-tolyl ester] |  | 166 to 168 |  |  | 20 | 2.4 | 96
CC(C)Oc1ccccc1N1CCN(Cc2cccc(C(=O)N3CCc4ccc(NCc5c(F)cccc5F)cc43)c2)CC1 [Cpd 6, [6-(2,6-difluoro-benzylamino)-2,3-dihydro-indol-1-yl]-{3-[4-(2-isopropoxy-phenyl)-piperazin-1-ylmethyl]-phenyl}-methanone] | 2.4 nM | 137 to 139 | 2 nM | 856 nM |  |  | 
CC(C)Oc1ccccc1N1CCN(Cc2cccc(C(=O)N3CCc4cc(NCc5ccc(C(F)(F)F)cc5)ccc43)c2)CC1 [Cpd 8, {3-[4-(2-isopropoxy-phenyl)-piperazin-1-ylmethyl]-phenyl}-[5-(4-trifluoromethyl-benzylamino)-2,3-dihydro-indol-1-yl]-methanone] | 15 nM | 74 to 76 | 14 nM | 389 nM |  |  | 
CC(C)Oc1ccccc1N1CCN(Cc2cccc(C(=O)N3CCc4cc(NCc5c(F)cccc5F)ccc43)c2)CC1 [Cpd 9, [5-(2,6-difluoro-benzylamino)-2,3-dihydro-indol-1-yl]-{3-[4-(2-isopropoxy-phenyl)-piperazin-1-ylmethyl]-phenyl}-methanone] | 17 nM | 127 to 130 | 26 nM | 2050 nM |  |  | 
CCOC(OCC)c1ccc(CNc2ccc3c(c2)N(C(=O)c2cccc(CN4CCN(c5ccccc5OC(C)C)CC4)c2)CC3)cc1 [Cpd 11] | 7 nM | 156 to 160 | 5 nM | 6260 nM |  |  | 
Cc1c(S(=O)(=O)Nc2ccc3c(c2)N(C(=O)c2cccc(CN4CCN(c5ccccc5OC(C)C)CC4)c2)CC3)sc2ccc(Cl)cc12 [Cpd 18, 5-chloro-3-methyl-benzo[b]thiophene-2-sulfonic acid (1-{3-[4-(2-isopropoxy-phenyl)-piperazin-1-ylmethyl]-benzoyl}-2,3-dihydro-1H-indol-6-yl)-amide] | 4 nM | 192 to 195 | 0.04 nM | 43 nM |  |  | 
CC(=O)Nc1ccc(S(=O)(=O)Nc2ccc3c(c2)CCN3C(=O)c2cccc(CN3CCN(c4ccccc4OC(C)C)CC3)c2)cc1 [Cpd 19, N-[4-(1-{3-[4-(2-isopropoxy-phenyl)-piperazin-1-ylmethyl]-benzoyl}-2,3-dihydro-1H-indol-5-ylsulfamoyl)-phenyl]-acetamide] | 2.3 nM | 132 to 134 | 26 nM | 383 nM |  |  | 
CCCCCCCCc1ccc(CNc2ccc3c(c2)CCN3C(=O)c2cccc(CN3CCN(c4ccccc4OC(C)C)CC3)c2)cc1 [Cpd 23, {3-[4-(2-isopropoxy-phenyl)-piperazin-1-ylmethyl]-phenyl}-[5-(4-octyl-benzylamino)-2,3-dihydro-indol-1-yl]-methanone] | 317 nM | 116 to 118 | 195 nM |  |  |  | 
CC(C)Oc1ccccc1N1CCN(Cc2cccc(C(=O)N3CCc4cc(Br)ccc43)c2)CC1 [Cpd 66, (5-bromo-2,3-dihydro-indol-1-yl)-{3-[4-(2-isopropoxy-phenyl)-piperazin-1-ylmethyl]-phenyl}-methanone] | 0.3 nM |  | 1.3 nM | 82.8 nM |  |  | 
CC(C)Oc1ccccc1N1CCN(Cc2cccc(C(=O)N3CCc4cc(Cl)ccc43)c2)CC1 [Cpd 67, (5-chloro-2,3-dihydro-indol-1-yl)-{3-[4-(2-isopropoxy-phenyl)-piperazin-1-ylmethyl]-phenyl}-methanone] | 14.7 nM and 22 nM |  | 2.1 nM and 12 nM | 1140 nM and 1260 nM |  |  | 
CC(C)Oc1ccccc1N1CCN(Cc2cccc(C(=O)N3CCc4cc(F)ccc43)c2)CC1 [Cpd 68, (5-fluoro-2,3-dihydro-indol-1-yl)-{3-[4-(2-isopropoxy-phenyl)-piperazin-1-ylmethyl]-phenyl}-methanone] | 13 nM |  | 13 nM | 288 nM |  |  | 
CC(C)Oc1ccccc1N1CCN(Cc2cccc(C(=O)N3CCc4cc(S(=O)(=O)N(C)C)ccc43)c2)CC1 [Cpd 70, 1-{3-[4-(2-isopropoxy-phenyl)-piperazin-1-ylmethyl]-benzoyl}-2,3-dihydro-1H-indole-5-sulfonic acid dimethylamide] | 41 nM |  | 107 nM | 1760 nM |  |  | 
CC(C)Oc1ccccc1N1CCN(Cc2cccc(C(=O)N3CCc4cc(S(C)(=O)=O)ccc43)c2)CC1 [Cpd 71, {3-[4-(2-isopropoxy-phenyl)-piperazin-1-ylmethyl]-phenyl}-(5-methanesulfonyl-2,3-dihydro-indol-1-yl)-methanone] | 16 nM and 21 nM |  | 14 nM and 17.5 nM | 716 nM and 720 nM |  |  | 
CC(C)Oc1ccccc1N1CCN(Cc2cccc(C(=O)N3CCc4cc(-c5ccccc5)ccc43)c2)CC1 [Cpd 72, {3-[4-(2-isopropoxy-phenyl)-piperazin-1-ylmethyl]-phenyl}-(5-phenyl-2,3-dihydro-indol-1-yl)-methanone] | 46 nM |  | 15 nM | 154 nM |  |  | 
CC(C)Oc1ccccc1N1CCN(Cc2cccc(C(=O)N3CCc4ccc(NC(=O)Nc5c(F)cccc5F)cc43)c2)CC1 [Cpd 73, 1-(2,6-difluoro-phenyl)-3-(1-{3-[4-(2-isopropoxy-phenyl)-piperazin-1-ylmethyl]-benzoyl}-2,3-dihydro-1H-indol-6-yl)-urea] | 1.5 nM |  | 31 nM | 208 nM |  |  | 
